Reference: PubChem BioAssay (NCI)
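Values below derive from 48-hour exposures of cells grown in 96-well plates, with endpoints linearly interpolated between the two concentrations bracketing the appropriate inhibition level. Abbreviation: GI50, concentration required for 50% inhibition of growth. The concentration for full growth arrest is given as TGI.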

Legend:
Assay in all cases: NCI anticancer screen, dose series, 48 h
DLD-1 colon = system: DLD-1 colon
K-562 leukemia = system: K-562 leukemia
DMS 273 small cell lung = system: DMS 273 small cell lung
RXF 393 renal = system: RXF 393 renal
UACC-62 melanoma = system: UACC-62 melanoma
CAKI-1 renal = system: CAKI-1 renal
HL-60(TB) leukemia = system: HL-60(TB) leukemia
KM20L2 colon = system: KM20L2 colon
NCI/ADR-RES ovarian = system: NCI/ADR-RES ovarian
SK-MEL-28 melanoma = system: SK-MEL-28 melanoma
LXFL 529 NSCLC = system: LXFL 529 NSCLC
HS 578T breast = system: HS 578T breast

Row | SMILES | TGI (DLD-1 colon) | TGI (K-562 leukemia) | TGI (DMS 273 small cell lung) | TGI (RXF 393 renal) | TGI (UACC-62 melanoma) | TGI (CAKI-1 renal) | TGI (HL-60(TB) leukemia) | TGI (KM20L2 colon) | TGI (NCI/ADR-RES ovarian) | TGI (SK-MEL-28 melanoma) | TGI (LXFL 529 NSCLC) | TGI (HS 578T breast) | GI50 (UACC-62 melanoma)
1 | C=CCc1cccc(/C=N\N=C(/N)NO)c1O | > 100 µM | > 47.9 µM | 16.5 µM | 19.2 µM | 7.11 µM | 9.01 µM | > 21.4 µM | 31.8 µM | > 29.3 µM | > 100 µM |  |  | 
2 | COc1cc2c(c(OC(C)=O)c1OC(C)=O)-c1ccc(SC)c(=O)cc1C(NC(C)=O)CC2 (stereo unspecified) | > 100 µM | 36.3 µM | > 100 µM | > 100 µM | > 100 µM | > 100 µM | 1.34 µM | 10.4 µM |  | > 100 µM | > 82.3 µM |  | 
3 | Cc1cc(C)n(C(=O)CSc2nnc(SCC(=O)n3nc(C)cc3C)s2)n1 |  | > 100 µM |  | > 100 µM | > 100 µM | > 100 µM | > 100 µM |  | > 100 µM | > 100 µM |  | 89.3 µM | 
4 | CCN(CC)CCNc1ccc2nnn3c4ccccc4c(=O)c1c23 | 42.2 µM | 14.8 µM | 14.3 µM | 18.5 µM | 20.4 µM | > 33.7 µM | 8.59 µM | 15.1 µM |  | 16 µM | 21.8 µM |  | 
5 | Oc1ccc(-c2cn3cc(C(F)(F)F)ccc3n2)cc1 |  | > 100 µM |  | > 100 µM | > 100 µM | > 100 µM | > 100 µM |  | > 100 µM | > 100 µM |  | > 100 µM | 
6 | CCC(=O)NCCc1c2c3c(ccnc3c3ncsc13)-c1ccccc1N2 |  | > 100 µM |  | > 100 µM | > 67.1 µM | > 100 µM | > 13.4 µM |  | > 100 µM | > 100 µM |  | 18.7 µM | 
7 | CC1OC(O[C@H]2CC[C@]3(C=O)[C@H]4CC[C@]5(C)[C@H](C6=CC(=O)OC6)CC[C@]5(O)[C@@H]4C=C[C@]3(O)C2)CC(O)C1O (stereo partly specified) |  | 9.01 µM |  | 0.193 µM | 0.807 µM | 0.428 µM | 0.689 µM |  | 0.623 µM | 1.7 µM |  | 4.2 µM | 
8 | COc1cc(C23OCC(Cc4cc5c(cc42)OCO5)C3CO)cc(OC)c1OC (stereo unspecified) |  | > 100 µM |  | 8.03 µM | > 100 µM | > 100 µM | > 50.1 µM |  | 5.51 µM | > 100 µM |  | > 100 µM | 4.27 µM
9 | CC(C)CN(CC#N)CC(C)C |  | > 100 µM |  | > 100 µM | > 100 µM | > 100 µM | > 100 µM |  | > 100 µM | > 100 µM |  | > 100 µM | 
10 | Cc1c2c(ccc3ccccc32)c[n+]2ccccc12 | > 100 µM | 37.8 µM | 28.5 µM |  |  | > 100 µM | 68.5 µM | 77 µM |  | 31.1 µM | 28.3 µM |  | 
11 | N#Cc1c(-c2ccccc2)c(C#N)c(=O)n(C2OC(CO)C(O)C(O)C2O)c1S (stereo unspecified) |  | > 100 µM |  | > 100 µM | > 100 µM | > 100 µM | > 100 µM |  | > 100 µM | > 100 µM |  | > 100 µM | 
12 | CCOC(=O)N1[C@@H]2CCC[C@@H]2C(=O)[C@@H]2CCC[C@@H]21 |  | > 100 µM |  | > 100 µM | > 100 µM | > 100 µM | > 100 µM |  | > 100 µM | > 100 µM |  | > 100 µM | 
13 | O=C(O)c1nccnc1C(=O)O | > 100 µM | > 100 µM | > 100 µM | > 100 µM | > 100 µM | > 100 µM | > 100 µM | > 100 µM |  | > 100 µM | > 100 µM |  | 
14 | CC(=O)Oc1c2oc3cc(O)c(O)cc3c2c(OC(C)=O)c2oc3cc(O)c(O)cc3c12 |  | > 100 µM |  | 32.6 µM | 40.2 µM | 97.2 µM | 13 µM |  | 86.7 µM | 41.5 µM |  | 36.4 µM | 
15 | O=c1[nH]c(=O)n(C/C=C/CBr)nc1Br |  | 47.7 µM |  | 25.4 µM | 27.3 µM | 24.9 µM | 24.5 µM |  | 45.6 µM | 28.2 µM |  | 53.8 µM | 
16 | O=C1C(Cl)C(c2cc3cc(Br)ccc3nc2Cl)N1c1c(Cl)cccc1Cl (stereo unspecified) |  | 18 µM |  | > 25 µM | > 25 µM | > 25 µM | > 25 µM |  | > 25 µM | > 25 µM |  | > 25 µM | 
17 | [O-][n+]1c(-c2ccccc2)c2nc3ccccc3nc2c2ccccc21 | > 100 µM | > 100 µM | > 100 µM | > 100 µM | > 100 µM | > 100 µM |  | > 100 µM |  | > 100 µM | 93.9 µM |  | 
18 | Cc1cc(C)n(CN(Cn2nc(C)cc2C)c2ccccc2)n1 |  | 46.1 µM |  | 38.9 µM | 26.5 µM | > 100 µM | 27.3 µM |  | 57.7 µM | 34.7 µM |  | > 100 µM | 
19 | Cc1ccc(-c2cc(-c3c(C)nn(C)c(=O)c3N)[nH]n2)cc1 |  | > 100 µM |  | > 100 µM | > 100 µM | > 100 µM | > 100 µM |  | > 100 µM | > 100 µM |  | > 100 µM | 
20 | c1ccc(C2=Nc3cccc4cccc(c34)N2)cc1 |  | > 72.9 µM |  | 45.6 µM | > 100 µM | > 94.6 µM | 8.14 µM |  | > 72.1 µM | > 100 µM |  | > 100 µM | 
21 | CCCCCCCCCc1c(O)c(O)c(CCCCCCCCC)c(CCCCCCCCC)c1CCCCCCCCC |  | > 100 µM |  | > 100 µM | > 100 µM | > 100 µM | 50 µM |  | > 100 µM | > 100 µM |  | > 100 µM | 
22 | CN(C)c1ccc(C(=NN)c2ccc(N(C)C)cc2)cc1 |  | > 56.9 µM |  | > 32.7 µM | > 100 µM | > 51 µM | 3.35 µM |  | 0.672 µM | > 100 µM |  | > 100 µM | 
23 | Cc1c(-c2ccccc2)c(C#N)c2nnn(-c3cccc(Cl)c3)c(=O)n12 |  | > 100 µM |  | > 100 µM | > 100 µM | > 100 µM | > 100 µM |  | > 100 µM | > 100 µM |  | > 100 µM | 
24 | CCN(CC)C(=S)SS(=O)(=O)c1ccccc1[N+](=O)[O-] |  | 50.4 µM |  | 45.4 µM | > 100 µM | 54.9 µM | > 44.8 µM |  | 97.5 µM | 49.9 µM |  | > 88.7 µM | 
25 | CC(=O)N/C(=C\c1ccc(/C=C(\NC(C)=O)C2=NC3C(=O)c4ccccc4C(=O)C3N2)cc1)C1=NC2C(=O)c3ccccc3C(=O)C2N1 (stereo unspecified) | > 100 µM | > 100 µM | > 100 µM | > 100 µM | > 100 µM | > 100 µM | > 100 µM | > 100 µM |  | > 100 µM | > 100 µM |  | 
26 | O=C(O)c1ccc(Nc2nc3cc(C(F)(F)F)ccc3nc2-c2ccccc2)cc1 |  | 42.7 µM |  | 81.5 µM | 26.2 µM | 50.4 µM | > 100 µM |  | 70.2 µM | > 100 µM |  | 49.4 µM | 
27 | O=C1NC(S(=O)(=O)O)=NNC12c1ccccc1-c1ccccc12 |  | > 10 µM |  | > 10 µM | > 10 µM | > 10 µM | > 10 µM |  | > 10 µM | > 10 µM |  | > 10 µM | 
28 | CCN(CC)CCNc1ccc(C)c2sc3ccccc3c(=O)c12 |  | 6.08 µM |  | 4.73 µM | 3.68 µM | 8.02 µM | 3.85 µM |  | 16.9 µM | 3.51 µM |  | 6.63 µM | 
